Molecular target: hGPR88 receptor (Homo sapiens, UniProt Q9GZN0)
Test: hGPR88-HEK cAMP accumulation assay
Settings: GRP88 agonist activity (EC50), HEK-293 cells expressing human recombinant GPR88, forskolin 200 nM, High/Medium/Low bands

Chain of hGPR88 receptor (Q9GZN0 whole entry): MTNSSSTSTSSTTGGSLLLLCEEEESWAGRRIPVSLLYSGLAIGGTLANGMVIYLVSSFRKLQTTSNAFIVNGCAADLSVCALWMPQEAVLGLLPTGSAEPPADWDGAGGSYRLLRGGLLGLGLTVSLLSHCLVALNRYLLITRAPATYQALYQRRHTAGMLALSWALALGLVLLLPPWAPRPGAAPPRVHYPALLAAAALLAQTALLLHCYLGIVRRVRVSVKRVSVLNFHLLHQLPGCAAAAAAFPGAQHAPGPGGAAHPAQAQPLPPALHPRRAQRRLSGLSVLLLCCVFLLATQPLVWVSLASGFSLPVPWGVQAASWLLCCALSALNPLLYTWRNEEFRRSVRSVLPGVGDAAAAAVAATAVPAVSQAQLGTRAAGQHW

SMILES	EC50 [µM]
COCc1ccc(-c2ccc(N(C[C@@H](O)[C@@H](C)OC)C(=O)C3CC3c3ccccn3)cc2)cc1 (mixture of isomers) [Example 5, (rac-trans)-N-((2R,3R)-2-hydroxy-3-methoxybutyl)-N-(4′-methoxymethyl)-[1,1′-biphenyl]-4-yl)-2-(pyridin-2-yl)cyclopropane-1-carboxamide]	> 5
CCCc1ccc(C23CC(NC(=O)C4CC4c4ccccn4)(C2)C3)cc1 (racemic) [Example 34, (rac-trans)-N-(3-(4-propylphenyl)bicyclo[1.1.1]pentan-1-yl)-2-(pyridin-2-yl)cyclopropane-1-carboxamide]	1 to 5
O=C(Nc1ccc(-c2ccc(CN3CCOCC3)cc2)cc1)C1CC1c1ccccn1 (racemic) [Example 37, (1R*,2R*)-N-(4′-(morpholinomethyl)-[1,1′-biphenyl]-4-yl)-2-(pyridin-2-yl)cyclopropane-1-carboxamide]	1 to 5
COCc1ccc(-c2ccc3c(c2)CCCN3C(=O)C2CC2c2ccccn2)cc1 (racemic) [Example 43, (6-(4-(methoxymethyl)phenyl)-3,4-dihydroquinolin-1(2H)-yl)((rac-trans)-2-(pyridin-2-yl)cyclopropyl)methanone]	> 5
COCc1ccc(C23CC(NC(=O)C4CC4c4ccccn4)(C2)C3)cc1 (racemic) [Example 44, (rac-trans)-N-(3-(4-(methoxymethyl)phenyl)bicyclo[1.1.1]pentan-1-yl)-2-(pyridin-2-yl)cyclopropane-1-carboxamide]	1 to 5
CN(C)Cc1ccc(-c2ccc(NC(=O)C3CC3c3ccccn3)cc2)cc1 (racemic) [Example 48, (rac-trans)-N-(4′-(dimethylamino)methyl)-[1,1′-biphenyl]-4-yl)-2-(pyridin-2-yl)cyclopropane-1-carboxamide]	> 5
COCc1ccc(-c2ccc3c(c2)CCN3C(=O)C2CC2c2ccccn2)cc1 (racemic) [Example 50, (5-(4-(methoxymethyl)phenyl)indolin-1-yl)((rac-trans)-2-(pyridin-2-yl)cyclopropyl)methanone]	1 to 5
COCc1ccc(-c2ccc(NC(=O)C3CC3c3ccc(F)cc3)cc2)cc1 (racemic) [Example 54, (rac-trans)-2-(4-fluorophenyl)-N-(4′-(methoxymethyl)-[1,1′-biphenyl]-4-yl)cyclopropane-1-carboxamide]	> 5
COCc1ccc(-c2ccc(NC(=O)C3CC3c3ccccc3)cc2)cc1 (racemic) [Example 61, (rac-trans)-N-(4′-(methoxymethyl)-[1,1′-biphenyl]-4-yl)-2-phenylcyclopropane-1-carboxamide]	> 5
COCc1ccc(-c2ccc(N(C)C(=O)C3CC3c3ccccn3)cc2)cc1 (racemic) [Example 73, (rac-trans)-N-(4′-(methoxymethyl)-[1,1′-biphenyl]-4-yl)-N-methyl-2-(pyridin-2-yl)cyclopropane-1-carboxamide]	> 5
CN(C)Cc1ccc(-c2ccc(NC(=O)C3CC3c3ccccn3)nc2)cc1 (racemic) [Example 82, (rac-trans)-N-(5-(4-((dimethylamino)methyl)phenyl)pyridin-2-yl)-2-(pyridin-2-yl)cyclopropane-1-carboxamide]	> 5
O=C(Nc1ccc(-c2ccc(CN3CCOCC3)cc2)cn1)C1CC1c1ccccn1 (racemic) [Example 83, (rac-trans)-N-(5-(4-(morpholinomethyl)phenyl)pyridin-2-yl)-2-(pyridin-2-yl)cyclopropane-1-carboxamide]	1 to 5
CC(C)Oc1ccc(-c2ccc(NC(=O)C3CC3c3ccccn3)cc2)cc1 (racemic) [Example 90, (rac-trans)-N-(4′-isopropoxy-[1,1′-biphenyl]-4-yl)-2-(pyridin-2-yl)cyclopropane-1-carboxamide]	1 to 5
CC(C)Oc1ccc(-c2ccc(NC(=O)C3CC3c3ccccn3)cc2)cn1 (racemic) [Example 109, (rac-trans)-N-(4-(6-isopropoxypyridin-3-yl)phenyl)-2-(pyridin-2-yl) cyclopropane-1-carboxamide]	1 to 5
COCc1ccc(C23CC(NC(=O)C4CC4c4ccccn4)(C2)C3)cc1 (racemic) [Example 110, (rac-trans)-N-(3-(4-(methoxymethyl)phenyl)bicyclo[1.1.1]pentan-1-yl)-2-(pyridin-2-yl)cyclopropane-1-carboxamide]	1 to 5
COCc1ccc(C23CC(NC(=O)C4CC4c4ccccn4)(C2)C3)cc1 (racemic) [Example 112, (rac-trans)-N-(3-(4-(methoxymethyl)phenyl)bicyclo[1.1.1]pentan-1-yl)-2-(pyridin-2-yl)cyclopropane-1-carboxamide]	> 5
COCc1ccc(-c2ccc(NC(=O)C3CC3c3ccccn3)nc2)cc1 (racemic) [Example 120, (rac-trans)-N-(5-(4-(methoxymethyl)phenyl)pyridin-2-yl)-2-(pyridin-2-yl)cyclopropane-1-carboxamide]	1 to 5
COCc1ccc(-c2ccc(NC(=O)C3CC3c3ccccn3)cc2)cc1 (single isomer, unassigned) [Example 19, N-(4′-(methoxymethyl)-[1,1′-biphenyl]-4-yl)-2-(pyridin-2-yl)cyclopropane-1-carboxamide]	> 5

SMILES	EC50 [µM]
O=C(Nc1ccc(-c2ccc(CN3CCOCC3)cc2)cc1)C1CC1c1ccccn1 (single isomer, unassigned) [Example 77, (1R*,2R*)-N-(4′-(morpholinomethyl)-[1,1′-biphenyl]-4-yl)-2-(pyridin-2-yl)cyclopropane-1-carboxamide]	1 to 5
CC(c1ccc(-c2ccc(NC(=O)C(C)(C)Oc3ccc(F)cc3)cc2)cc1)N1CCOCC1 (single isomer, unassigned) [Example 122, 2-(4-fluorophenoxy)-2-methyl-N-(4′-(1-morpholinoethyl)-[1,1′-biphenyl]-4-yl)propanamide]	1 to 5
CC(c1ccc(-c2ccc(NC(=O)C(C)(C)Oc3ccc(F)cc3)cc2)cc1)N1CCOCC1 (single isomer, unassigned) [Example 123, 2-(4-fluorophenoxy)-2-methyl-N-(4′-(1-morpholinoethyl)-[1,1′-biphenyl]-4-yl)propanamide]	< 1
O=C(Nc1ccc(-c2ccc(OC3CC3)cc2)cc1)C1CC1c1ccccn1 (single isomer, unassigned) [Example 130, N-(4′-cyclopropoxy-[1,1′-biphenyl]-4-yl)-2-(pyridin-2-yl)cyclopropane-1-carboxamide]	> 5
CC(C)Oc1ccc(-c2ccc(NC(=O)C3CC3c3ccccn3)cc2)cn1 (single isomer, unassigned) [Example 133, N-(4-(6-isopropoxypyridin-3-yl)phenyl)-2-(pyridin-2-yl)cyclopropane-1-carboxamide]	1 to 5
CC(C)Oc1ccc(-c2ccc(NC(=O)C3CC3c3ccccn3)cc2)cn1 (single isomer, unassigned) [Example 134, N-(4-(6-isopropoxypyridin-3-yl)phenyl)-2-(pyridin-2-yl)cyclopropane-1-carboxamide]	> 5
COCc1ccc(-c2ccc(NC(=O)C(C)Oc3ccc(F)cc3)cc2)cc1 (stereo not drawn) [Example 6]	> 5
CC(C)(Oc1ccc(F)cc1)C(=O)Nc1ccc(-c2ccc(C(F)(F)F)cc2)cc1 [Example 10, 2-(4-fluorophenoxy)-2-methyl-N-(4′-(trifluoromethyl)-[1,1′-biphenyl]-4-yl)propenamide]	> 5
COc1ccc(-c2ccc(NC(=O)C(C)(C)Oc3ccc(F)cc3)cc2)cc1 [Example 11, 2-(4-fluorophenoxy)-N-(4′-methoxy-[1,1′-biphenyl]-4-yl)-2-methylpropanamide]	> 5
CC(C)(Oc1ccc(F)cc1)C(=O)Nc1ccc(-c2ccc(OC(F)(F)F)cc2)cc1 [Example 12, 2-(4-fluorophenoxy)-2-methyl-N-(4′-(trifluoromethoxy)-[1,1′-biphenyl]-4-yl)propanamide]	> 5
CCN(C(=O)C(C)(C)Oc1ccc(F)cc1)c1ccc(-c2ccc(COC)cc2)cc1 [Example 14, N-ethyl-2-(4-fluorophenoxy)-N-(4′-(methoxymethyl)-[1,1′-biphenyl]-4-yl)-2-methylpropanamide]	1 to 5
COCCN(C(=O)C(C)(C)Oc1ccc(F)cc1)c1ccc(-c2ccc(COC)cc2)cc1 [Example 15, 2-(4-fluorophenoxy)-N-(2-methoxyethyl)-N-(4′-(methoxymethyl)-[1,1′-biphenyl]-4-yl)-2-methylpropanamide]	1 to 5
CN(C)C(=O)c1ccc(-c2ccc(NC(=O)C(C)(C)Oc3ccc(F)cc3)cc2)cc1 [Example 16, 4′-(2-(4-fluorophenoxy)-2-methylpropanamido)-N,N-dimethyl-[1,1′-biphenyl]-4-carboxamide]	> 5
CCCN(C(=O)C(C)(C)Oc1ccc(F)cc1)c1ccc(-c2ccc(C)cc2)cc1 [Example 20, 2-(4-fluorophenoxy)-2-methyl-N-(4′-methyl-[1,1′-biphenyl]-4-yl)-N-propylpropanamide]	> 5
Cc1ccc(-c2ccc(N(CC(C)C)C(=O)C(C)(C)Oc3ccc(F)cc3)cc2)cc1 [Example 21, 2-(4-fluorophenoxy)-N-isobutyl-2-methyl-N-(4′-methyl-[1,1′-biphenyl]-4-yl)-2-methylpropanamide]	> 5
CCCN(C(=O)C(C)(C)Oc1ccc(F)cc1)c1ccc(-c2ccc(COC)cc2)cc1 [Example 22, 2-(4-fluorophenoxy)-N-(4′-(methoxymethyl)-[1,1′-biphenyl]-4-yl)-2-methyl-N-propylpropanamide]	1 to 5
COCc1ccc(-c2ccc(N(CC(C)C)C(=O)C(C)(C)Oc3ccc(F)cc3)cc2)cc1 [Example 23, 2-(4-fluorophenoxy)-N-isobutyl-N-(4′-(methoxymethyl)-[1,1′-biphenyl]-4-yl)-2-methylpropanamide]	> 5
Cc1ncc(-c2ccc(NC(=O)C(C)(C)Oc3ccc(F)cc3)cc2)cn1 [Example 24, 2-(4-fluorophenoxy)-2-methyl-N-(4-(2-methylpyrimidin-5-yl)phenyl)propenamide]	> 5

Reference: patent US20240132450A1, “MODULATORS OF G PROTEIN-COUPLED RECEPTOR 88” (ACADIA Pharmaceuticals Inc., priority 2020, published 2024)
